Results as given in patent US11890295B2, “Helicobacter pylori eradication method including step for orally administering composition including complex of non-absorbable antibiotic and clay mineral to subject” (KOREA INSTITUTE OF GEOSCIENCE AND MINERAL RESOURCES, priority 2018, dated 2024).

Experiments:
[1] = test system: H. pylori, 187 culture-positive clinical strains; test: antibiotic resistant rate from in vitro MIC on clinical strains; type: cell-based, Helicobacter pylori; conditions: based on MIC 1 μg/mL
Experimental: In virto MIC for non-absorbable antibiotic candidates (gentamicin, netilmicin, tobramycin, and amikacin) to be used as novel therapeutic agents was measured by making complexes with antibiotics (amoxicillin, clarithromycin, metronidazole, levofloxacin, and tetracyclin) that were actually used for Helicobacter eradicating treatment in clinical trials and smectite, and MIC50 and MIC90 were identified. For this end, 187 culture-positive clinical strains obtained from 1,265 patient specimens were used.

[2] = test system: clarithromycin-resistant strain; test: MIC of clarithromycin for the clarithromycin-resistant strain; type: cell-based; conditions: Helicobacter pylori
[3] = test system: Clarithromycin-resistant Helicobacter pylori bacteria; test: in vitro eradication activity on resistant strain, disk on medium; type: cell-based; conditions: twice repeated tests
Source text: Clarithromycin-resistant Helicobacter pylori bacteria were applied on a medium (red), and a sample was made in the form of a disk and placed on the medium to measure an eradicating effect. At this time, if the red color disappeared around the disk, it means that there was the eradicating effect.

Molecule | resistant rate of H. pylori [1] [%] | MIC [2] [µg/mL] | clear zone around disk (eradication activity) [3]
gentamicin | 2.78 | – | –
CC[C@H]1OC(=O)[C@H](C)[C@@H](O[C@H]2C[C@@](C)(OC)[C@@H](O)[C@H](C)O2)[C@H](C)[C@@H](O[C@@H]2O[C@H](C)C[C@H](N(C)C)[C@H]2O)[C@](C)(OC)C[C@@H](C)C(=O)[C@H](C)[C@@H](O)[C@]1(C)O [clarithromycin] | – | 48 | no clear zone
